Among the data in patent publication US10980805B2, “Aza-pyridone compounds and uses thereof” (Janssen BioPharma, Inc., priority 2013, dated 2021) are EC50 and IC50 values, retold here.

Assay [1] has as its system Influenza strain A549_A/WSN/33 (H1N1). Nature of the assay: Influenza antiviral assay (neuraminidase fluorescence readout). The format is cell-based, Influenza virus. The note with it: read-out: % Inhibition (EC50 class, Table 2).
In assay [2] the target is Full length EN PA (influenza PA endonuclease) (Influenza A virus, UniProt P15659). As to the kind of experiment: EN PA FRET inhibition assay. Type of assay: biochemical. Particulars: FRET probe, mean of a minimum of two independent experiments, read-out: Potency (IC50 class, Table 3).

Where two headings read alike, the source gives them in different places.

Turning to `CCN1C[C@H](C(c2cccc(F)c2)c2cccc(F)c2)n2ncc(=O)c(OCOC(=O)Oc3ccc([N+](=O)[O-])cc3C)c2C1=O` [Compound 88-A], the 50% effective concentration (EC50) in assay [1] (Influenza A virus) was below 20 µM. In addition, the IC50 in assay [2] is 250 to 1000 nM.
For `CN1CC(C(c2ccccc2)c2ccc(F)cc2)n2ncc(=O)c(O)c2C1=O` (stereo not shown) [Compound 40] the same measures were below 20 µM and below 250 nM.
For `CN1C[C@H](C2c3ccc(F)cc3CCc3c(F)cccc32)n2ncc(=O)c(O)c2C1=O` (stereo partly shown) [Compound 81-A] the same measures were below 20 µM and below 250 nM.
Take `CN1C[C@H](C2c3cccc(F)c3CCc3c(F)cccc32)n2ncc(=O)c(O)c2C1=O` [Compound 83-A]: in assay [1] (Influenza A virus), the EC50 is below 20 µM. Further, in assay [2], the IC50 is below 250 nM.
For `CC(C)C(=O)Oc1c2n(ncc1=O)[C@@H](C(c1ccccc1)c1ccccc1)CN(C(C)C)C2=O` [Compound 69-A] the same measures were below 20 µM and below 250 nM.
For `CN1CC(C(c2ccccc2)c2cccc(CC(N)=O)c2)n2ncc(=O)c(O)c2C1=O` (stereo not shown) [Compound 101] the same measures were 20 to 100 µM and below 250 nM.
Regarding `CC(C)N1CC(C(c2ccccc2)c2cccc(F)c2)n2ncc(=O)c(O)c2C1=O` (stereo not shown) [Compound 47], the 50% effective concentration (EC50) in assay [1] (Influenza A virus) was below 20 µM. Besides, the IC50 in assay [2] is below 250 nM.
For `CC(C)N1C[C@@H]([C@@H](c2ccccc2)n2ccc(C#N)n2)n2ncc(=O)c(O)c2C1=O` [Compound 127-D], the EC50 in assay [1] (Influenza A virus) is below 20 µM. Moreover, the IC50 in assay [2] fell in the range of 250 to 1000 nM.
The corresponding values for `CN1C[C@H]([C@@H](c2ccccc2)n2ccnc2)n2ncc(=O)c(O)c2C1=O` [Compound 108-A] are 20 to 100 µM and below 250 nM.
Consider `CN1CC(C2c3ccc(F)cc3CCc3c(F)cccc32)n2ncc(=O)c(O)c2C1=O` (stereo not shown) [Compound 59-A], for which the EC50 in assay [1] (Influenza A virus) was below 20 µM. Besides, the IC50 in assay [2] is below 250 nM.
As to `CCN1CC(C(c2cccc(F)c2)c2cccc(F)c2)n2ncc(=O)c(O)c2C1=O` (stereo not shown) [Compound 21], the EC50 in assay [1] (Influenza A virus) was below 20 µM. In addition, the IC50 in assay [2] was below 250 nM.
The corresponding values for `CCC#Cc1ccn([C@H](c2ccccc2)[C@@H]2CN(C)C(=O)c3c(O)c(=O)cnn32)n1` [Compound 124] are below 20 µM and 250 to 1000 nM.
For `CN1CC(C(c2ccccc2)c2cccc(OCC3CC3)c2)n2ncc(=O)c(O)c2C1=O` (stereo not shown) [Compound 55] the same measures were 20 to 100 µM and below 250 nM.
Consider `CCN1CC(C(c2ccccc2)c2cccc(Cl)c2)n2ncc(=O)c(O)c2C1=O` (stereo not shown) [Compound 12], for which the EC50 in assay [1] (Influenza A virus) was below 20 µM. In addition, the IC50 in assay [2] was below 250 nM.
For `CCC#Cc1ccn([C@@H](c2ccccc2)[C@H]2CN(C)C(=O)c3c(O)c(=O)cnn32)n1` [Compound 123] the same measures were below 20 µM and below 250 nM.
For `CC(C)CN1C[C@H](C(c2ccccc2)c2ccccc2)n2ncc(=O)c(O)c2C1=O` [Compound 98-A] the same measures were below 20 µM and below 250 nM.
The corresponding values for `CC(C)N1C[C@H](C(c2ccccc2)c2ccccc2)n2ncc(=O)c(OC(=O)C3CCOCC3)c2C1=O` [Compound 120] are below 20 µM and below 250 nM.
Turning to `CC(C)N1CC(=C2c3ccccc3CCc3ccccc32)n2ncc(=O)c(O)c2C1=O` [Compound 30], in assay [1] (Influenza A virus), the EC50 lay in the range of 20 to 100 µM. The IC50 in assay [2] is below 250 nM.
The corresponding values for `CN1CC(C2c3ccccc3COc3ccccc32)n2ncc(=O)c(O)c2C1=O` (stereo not shown) [Compound 57] are below 20 µM and below 250 nM.
The corresponding values for `CC(C)Oc1cccc(C(c2ccccc2)[C@H]2CN(C)C(=O)c3c(O)c(=O)cnn32)c1` (stereo partly shown) [Compound 54] are 20 to 100 µM and below 250 nM.
For `C[C@H](N1C[C@H](C(c2ccccc2)c2ccccc2)n2ncc(=O)c(O)c2C1=O)C(F)(F)F` [Compound 18-A], the EC50 in assay [1] (Influenza A virus) is below 20 µM. In assay [2], the IC50 is below 250 nM.
The corresponding values for `CCN1CC(C(c2ccccc2)c2cccc(F)c2)n2ncc(=O)c(O)c2C1=O` (stereo not shown) [Compound 24] are below 20 µM and below 250 nM.
For `C#Cc1ccn([C@@H](c2ccccc2)[C@@H]2CN(C)C(=O)c3c(O)c(=O)cnn32)n1` [Compound 109-D] the same measures were below 20 µM and 250 to 1000 nM.
For `CN1C[C@H](C2c3cc(F)ccc3CCc3ccc(F)cc32)n2ncc(=O)c(O)c2C1=O` [Compound 45-A] the same measures were below 20 µM and below 250 nM.
Turning to `CCN1C[C@H](C(c2cccc(F)c2)c2cccc(F)c2)n2ncc(=O)c(OCOC(=O)[C@@H](N)C(C)C)c2C1=O` [Compound 95-A], the EC50 in assay [1] (Influenza A virus) is below 20 µM. Besides, the IC50 in assay [2] is below 250 nM.
The corresponding values for `CN1CC(C(c2ccccc2)c2cccc(CC#N)c2)n2ncc(=O)c(O)c2C1=O` (stereo not shown) [Compound 99] are 20 to 100 µM and below 250 nM.
On to `CC(C)N1C[C@H](C(c2ccccc2)c2cccc(Cl)c2)n2ncc(=O)c(O)c2C1=O` (single isomer, unassigned) [Compound 82-A], for which, in assay [1], the EC50 is below 20 µM. The half-maximal inhibitory concentration (IC50) in assay [2] was below 250 nM.
As to `CCC#Cc1ccn(C(c2ccccc2)C2CN(C(C)C)C(=O)c3c(O)c(=O)cnn32)n1` (stereo not shown) [Compound 126], the EC50 in assay [1] (Influenza A virus) was below 20 µM. For the same compound, the IC50 in assay [2] is below 250 nM.
For `CCN1CC(C(c2ccccc2)c2cccc(OC)c2)n2ncc(=O)c(O)c2C1=O` (stereo not shown) [Compound 34] the same measures were below 20 µM and below 250 nM.
The corresponding values for `CCN1CC(C2c3ccccc3CCc3ccccc32)n2ncc(=O)c(O)c2C1=O` (stereo not shown) [Compound 14] are below 20 µM and below 250 nM.
The corresponding values for `CCN1C[C@@H](C(c2cccc(F)c2)c2cccc(F)c2)n2ncc(=O)c(O)c2C1=O` [Compound 21-B] are below 20 µM and below 250 nM.
As for `CN1CC(C(c2ccccc2)c2cccc(O)c2)n2ncc(=O)c(O)c2C1=O` (stereo not shown) [Compound 64], the EC50 in assay [1] (Influenza A virus) was below 20 µM. Further, in assay [2], the IC50 is below 250 nM.
The corresponding values for `O=C1c2c(O)c(=O)cnn2[C@@H](C(c2cccc(F)c2)c2cccc(F)c2)CN1CC1CC1` [Compound 93-A] are below 20 µM and below 250 nM.
The corresponding values for `CC(C)COC(=O)Oc1c2n(ncc1=O)[C@@H](C(c1ccccc1)c1ccccc1)CN(C(C)C)C2=O` [Compound 134] are below 20 µM and at least 1000 nM.
The corresponding values for `CC(C)C(=O)Oc1c2n(ncc1=O)[C@@H](C1c3ccccc3CCc3ccccc31)CN(C)C2=O` [Compound 65-A] are below 20 µM and below 250 nM.
With `CCN1C[C@H](C(c2ccccc2)c2cccc(Cl)c2)n2ncc(=O)c(OC(=O)c3cccnc3)c2C1=O` (stereo partly shown) [Compound 79-A], the concentration for a half-maximal effect (EC50) in assay [1] (Influenza A virus) was below 20 µM. The IC50 in assay [2] is below 250 nM.
As for `CC(C)N1C[C@H]([C@@H](c2ccccc2)n2ccc(C#N)n2)n2ncc(=O)c(O)c2C1=O` [Compound 127-C], the EC50 in assay [1] was below 20 µM. Moreover, the IC50 in assay [2] lay within 250 to 1000 nM.
For the compound `CCN1C[C@@H](C(c2cccc(Cl)c2)c2cccc(Cl)c2)n2ncc(=O)c(O)c2C1=O` [Compound 39-B], the half-maximal effective concentration (EC50) in assay [1] (Influenza A virus) was below 20 µM. Besides, the half-inhibitory concentration (IC50) in assay [2] lay within 250 to 1000 nM.
The corresponding values for `CN1CC(C2c3ccccc3CCc3cc(Cl)ccc32)n2ncc(=O)c(O)c2C1=O` (stereo not shown) [Compound 29] are below 20 µM and below 250 nM.
For `CN1C[C@H](C2c3ccccc3CCc3cccnc32)n2ncc(=O)c(O)c2C1=O` (stereo partly shown) [Compound 42-A] the same measures were below 20 µM and below 250 nM.
The corresponding values for `CCN1C[C@H]([C@@H](c2ccccc2)c2cccc(Cl)c2)n2ncc(=O)c(OC(=O)C(C)C)c2C1=O` [Compound 67-A] are below 20 µM and below 250 nM.
For the compound `CN1C[C@@H](C2c3cc(F)ccc3CCc3ccc(F)cc32)n2ncc(=O)c(O)c2C1=O` [Compound 45-B], the EC50 in assay [1] (Influenza A virus) was in the range of 20 to 100 µM. Moreover, the IC50 in assay [2] is below 250 nM.
For the compound `CN1C[C@H](C(c2ccccc2)c2ccccc2)n2ncc(=O)c(O)c2C1=O` [Compound 1-A], in assay [1] (Influenza A virus), the EC50 was below 20 µM. Besides, in assay [2], the IC50 was below 250 nM.
The corresponding values for `CCN1C[C@H](C(c2cccc(F)c2)c2cccc(F)c2)n2ncc(=O)c(OCOC(=O)NC)c2C1=O` [Compound 94-A] are 20 to 100 µM and at least 1000 nM.
For `CCN1C[C@H]([C@@H](c2ccccc2)c2cccc(Cl)c2)n2ncc(=O)c(O)c2C1=O` [Compound 12-A] the same measures were below 20 µM and below 250 nM.
For `CCC#Cc1ccn([C@H](c2ccccc2)[C@H]2CN(C)C(=O)c3c(O)c(=O)cnn32)n1` [Compound 122] the same measures were below 20 µM and below 250 nM.
Turning to `CC(C)N1CC(C(c2ccccc2)c2cccnc2)n2ncc(=O)c(O)c2C1=O` (stereo not shown) [Compound 135], the EC50 in assay [1] (Influenza A virus) is below 20 µM. Besides, the IC50 in assay [2] was below 250 nM.
The corresponding values for `O=C1c2c(O)c(=O)cnn2[C@@H](C(c2ccccc2)c2ccccc2)CN1CC1CC1` [Compound 97-A] are below 20 µM and below 250 nM.
Turning to `C[C@@H](N1C[C@H](C(c2ccccc2)c2ccccc2)n2ncc(=O)c(O)c2C1=O)C(F)(F)F` [Compound 110-A], the EC50 in assay [1] (Influenza A virus) is below 20 µM. The IC50 in assay [2] was below 250 nM.
Consider `CN1C[C@H]([C@H](c2ccccc2)n2ccnc2)n2ncc(=O)c(O)c2C1=O` [Compound 108-B], for which the EC50 in assay [1] (Influenza A virus) fell in the range of 20 to 100 µM. For the same compound, the IC50 in assay [2] is below 250 nM.
For `COCC(C)(C)N1CC(C(c2ccccc2)c2ccccc2)n2ncc(=O)c(O)c2C1=O` (stereo not shown) [Compound 90] the same measures were below 20 µM and below 250 nM.
Turning to `O=C1NCC(C2c3ccccc3CSc3c(Cl)cccc32)n2ncc(=O)c(O)c21` (stereo not shown) [Compound 10], the EC50 in assay [1] (Influenza A virus) was below 20 µM. Further, the half-inhibitory concentration (IC50) in assay [2] was below 250 nM.
In the case of `CN1C[C@H]([C@H]2c3cc(F)ccc3CCc3c(F)cccc32)n2ncc(=O)c(O)c2C1=O` [Compound 71-B], in assay [1] (Influenza A virus), the EC50 was below 20 µM. For the same compound, the IC50 in assay [2] was below 250 nM.
